Our source for the Activity values is ChEMBL document CHEMBL3045600, “Synthesis and Fungicidal Activities of Phenoxyphenyl Alkoxyiminoacetamide Derivatives” (J Pestic Sci, 1998).

Assay type in all cases: functional
Assay [1] concerns Podosphaera fuliginea. The experiment in a line: Fungicidal activity against Podosphaera fuliginea assessed as cucumber powdery mildew control under greenhouse at 125 ppm foliar application 24 hr after inoculation on upper surface of leaf at 23 +/- 2 degC by curative manner.
Assay [2] has as its system Thanatephorus cucumeris. The experiment in a line: Fungicidal activity against Thanatephorus cucumeris assessed as rice sheath blight disease control at 2 ppm foliar application for 24 hr before inoculation at 26 +- 2 measured after 5 days by preventive manner.
Assay [3] deals with Pyricularia oryzae. The experiment in a line: Fungicidal activity against Magnaporthe oryzae assessed as rice blast disease control at 10 ppm submerged application measured after 7 days.
In assay [4] the test system is Podosphaera fuliginea. The assay can be described thus: Fungicidal activity against Podosphaera fuliginea assessed as cucumber powdery mildew control under greenhouse at 2 ppm foliar application 24 hr after inoculation on upper surface of leaf at 23 +/- 2 degC by curative manner.
Assay [5] relates to Botrytis cinerea. The experiment in a line: Fungicidal activity against Botryotinia fuckeliana assessed as cucumber gray mold disease control at 125 ppm foliar application 24 hr after inoculation at 22 +/- 2 degC measured after 3 days by curative manner.
Assay [6] deals with Botrytis cinerea. The experiment in a line: Fungicidal activity against Botryotinia fuckeliana assessed as cucumber gray mold disease control at 31.3 ppm foliar application 24 hr after inoculation at 22 +/- 2 degC measured after 3 days by curative manner.
For assay [7], the system named is Pseudoperonospora cubensis. The experiment in a line: Fungicidal activity against Pseudoperonospora cubensis assessed as cucumber downy mildew disease control at 2 ppm foliar application 24 hr after inoculation on upper surface of leaf by curative manner.
The test system of assay [8] is Pseudoperonospora cubensis. The assay can be described thus: Fungicidal activity against Pseudoperonospora cubensis assessed as cucumber downy mildew disease control at 125 ppm foliar application 24 hr before inoculation on upper surface of leaf by preventive manner.
Assay [9] relates to Pseudoperonospora cubensis. The experiment in a line: Fungicidal activity against Pseudoperonospora cubensis assessed as cucumber downy mildew disease control at 7.8 ppm foliar application 24 hr before inoculation on upper surface of leaf by preventive manner.
The subject of assay [10] is Podosphaera fuliginea. The experiment in a line: Fungicidal activity against Podosphaera fuliginea assessed as cucumber powdery mildew control under greenhouse at 31.3 ppm foliar application 24 hr before inoculation on upper surface of leaf at 23 +/- 2 degC by preventive manner.
Assay [11] has as its system Pseudoperonospora cubensis. The experiment in a line: Fungicidal activity against Pseudoperonospora cubensis assessed as cucumber downy mildew disease control at 125 ppm foliar application 24 hr after inoculation on upper surface of leaf by curative manner.
Assay [12] relates to Pyricularia oryzae. The assay can be described thus: Fungicidal activity against Magnaporthe oryzae assessed as rice blast disease control at 2.5 ppm submerged application measured after 7 days.
Assay [13] deals with Pseudoperonospora cubensis. The experiment in a line: Fungicidal activity against Pseudoperonospora cubensis assessed as cucumber downy mildew disease control at 31.3 ppm foliar application 24 hr before inoculation on upper surface of leaf by preventive manner.
Assay [14] relates to Botrytis cinerea. The assay can be described thus: Fungicidal activity against Botryotinia fuckeliana assessed as cucumber gray mold disease control at 7.8 ppm foliar application 24 hr after inoculation at 22 +/- 2 degC measured after 3 days by curative manner.
The subject of assay [15] is Thanatephorus cucumeris. The assay can be described thus: Fungicidal activity against Thanatephorus cucumeris assessed as rice sheath blight disease control at 7.8 ppm foliar application for 24 hr before inoculation at 26 +- 2 measured after 5 days by preventive manner.
Assay [16] relates to Pyricularia oryzae. The assay can be described thus: Fungicidal activity against Magnaporthe oryzae assessed as rice blast disease control at 0.63 ppm submerged application measured after 7 days.
In assay [17] the test system is Pseudoperonospora cubensis. The experiment in a line: Fungicidal activity against Pseudoperonospora cubensis assessed as cucumber downy mildew disease control at 7.8 ppm foliar application 24 hr after inoculation on upper surface of leaf by curative manner.
Assay [18] deals with Thanatephorus cucumeris. The assay can be described thus: Fungicidal activity against Thanatephorus cucumeris assessed as rice sheath blight disease control at 31.3 ppm foliar application for 24 hr before inoculation at 26 +- 2 measured after 5 days by preventive manner.
Assay [19] has as its system Pseudoperonospora cubensis. The experiment in a line: Fungicidal activity against Pseudoperonospora cubensis assessed as cucumber downy mildew disease control at 2 ppm foliar application 24 hr before inoculation on upper surface of leaf by preventive manner.
In assay [20] the test system is Pyricularia oryzae. The assay can be described thus: Fungicidal activity against Magnaporthe oryzae assessed as rice blast disease control at 0.16 ppm submerged application measured after 7 days.
For assay [21], the system named is Pseudoperonospora cubensis. The experiment in a line: Fungicidal activity against Pseudoperonospora cubensis assessed as cucumber downy mildew disease control at 31.3 ppm foliar application 24 hr after inoculation on upper surface of leaf by curative manner.
For assay [22], the system named is Podosphaera fuliginea. The assay can be described thus: Fungicidal activity against Podosphaera fuliginea assessed as cucumber powdery mildew control under greenhouse at 7.8 ppm foliar application 24 hr after inoculation on upper surface of leaf at 23 +/- 2 degC by curative manner.
Assay [23] has as its system Podosphaera fuliginea. The experiment in a line: Fungicidal activity against Podosphaera fuliginea assessed as cucumber powdery mildew control under greenhouse at 2 ppm foliar application 24 hr before inoculation on upper surface of leaf at 23 +/- 2 degC by preventive manner.
In assay [24] the test system is Thanatephorus cucumeris. The assay can be described thus: Fungicidal activity against Thanatephorus cucumeris assessed as rice sheath blight disease control at 125 ppm foliar application for 24 hr before inoculation at 26 +- 2 measured after 5 days by preventive manner.
In assay [25] the test system is Botrytis cinerea. The assay can be described thus: Fungicidal activity against Botryotinia fuckeliana assessed as cucumber gray mold disease control at 2 ppm foliar application 24 hr after inoculation at 22 +/- 2 degC measured after 3 days by curative manner.
The test system of assay [26] is Podosphaera fuliginea. The experiment in a line: Fungicidal activity against Podosphaera fuliginea assessed as cucumber powdery mildew control under greenhouse at 31.3 ppm foliar application 24 hr after inoculation on upper surface of leaf at 23 +/- 2 degC by curative manner.
In assay [27] the test system is Podosphaera fuliginea. The assay can be described thus: Fungicidal activity against Podosphaera fuliginea assessed as cucumber powdery mildew control under greenhouse at 125 ppm foliar application 24 hr before inoculation on upper surface of leaf at 23 +/- 2 degC by preventive manner.
In assay [28] the test system is Podosphaera fuliginea. The experiment in a line: Fungicidal activity against Podosphaera fuliginea assessed as cucumber powdery mildew control under greenhouse at 7.8 ppm foliar application 24 hr before inoculation on upper surface of leaf at 23 +/- 2 degC by preventive manner.
In assay [29] the test system is Botrytis cinerea. The experiment in a line: Fungicidal activity against Botryotinia fuckeliana assessed as cucumber gray mold disease control at 2 ppm foliar application 24 hr before inoculation at 22 +/- 2 degC measured after 3 days by preventive manner.
Assay [30] concerns Botrytis cinerea. The experiment in a line: Fungicidal activity against Botryotinia fuckeliana assessed as cucumber gray mold disease control at 31.3 ppm foliar application 24 hr before inoculation at 22 +/- 2 degC measured after 3 days by preventive manner.
Assay [31] relates to Botrytis cinerea. The experiment in a line: Fungicidal activity against Botryotinia fuckeliana assessed as cucumber gray mold disease control at 125 ppm foliar application 24 hr before inoculation at 22 +/- 2 degC measured after 3 days by preventive manner.
Assay [32] concerns Botrytis cinerea. The assay can be described thus: Fungicidal activity against Botryotinia fuckeliana assessed as cucumber gray mold disease control at 7.8 ppm foliar application 24 hr before inoculation at 22 +/- 2 degC measured after 3 days by preventive manner.

Each structure is given as a SMILES string. A value given as a limit tells only on which side of the number the result lay.

`CNC(=O)/C(=N/OC)c1ccccc1Oc1cccc(C)c1`: the Activity with Podosphaera fuliginea [1] was 50%; in the assay with Thanatephorus cucumeris [2] it was 70%; with Pyricularia oryzae [3] it was 50%; in the assay with Podosphaera fuliginea [4], 50%; with Botrytis cinerea [5] it was 50%; in the assay with Botrytis cinerea [6], 50%. Further, the Activity came out at 50% in assay [7]; 70% in [8]; 70% in assay [9]; 70% with Podosphaera fuliginea [10]; 50% in assay [11]; 50% in the assay with Pyricularia oryzae [12]. Further, the Activity is given as 70% in assay [13]; 50% in the assay with Botrytis cinerea [14]; 70% in the assay with Thanatephorus cucumeris [15]; 50% in the assay with Pyricularia oryzae [16]; 50% in [17]; 70% in the assay on Thanatephorus cucumeris [18]. For the same compound, the Activity was 70% in [19]; 50% with Pyricularia oryzae [20]; 50% in assay [21]; 50% with Podosphaera fuliginea [22]; 70% in the assay on Podosphaera fuliginea [23]; 70% with Thanatephorus cucumeris [24]. For the same compound, the Activity with Botrytis cinerea [25] is 50%; with Podosphaera fuliginea [26] it was 50%; in the assay with Podosphaera fuliginea [27] it was 70%; with Podosphaera fuliginea [28], 70%.

As to `CNC(=O)/C(=N/OC)c1ccccc1Oc1ccc(C(C)(C)C)cc1`, the Activity worked out at 50% in the assay with Podosphaera fuliginea [1]; 70% with Thanatephorus cucumeris [2]; 50% with Pyricularia oryzae [3]; 50% in the assay on Podosphaera fuliginea [4]; 50% in the assay with Botrytis cinerea [5]; 50% in the assay with Botrytis cinerea [6]. Moreover, the Activity is reported as under 50% in assay [7]; under 70% in assay [8]; under 70% in [9]; 70% in the assay with Podosphaera fuliginea [10]; under 50% in assay [11]; 50% in the assay on Pyricularia oryzae [12]. The Activity in assay [13] is under 70%; in the assay with Botrytis cinerea [14], 50%; with Thanatephorus cucumeris [15], 70%; in the assay on Pyricularia oryzae [16], 50%; in assay [17], under 50%; with Thanatephorus cucumeris [18], 70%. For the same compound, the Activity in assay [19] is under 70%; in the assay with Pyricularia oryzae [20], 50%; in assay [21], under 50%; in the assay with Podosphaera fuliginea [22] it was 50%; with Podosphaera fuliginea [23], 70%; in the assay with Thanatephorus cucumeris [24], 70%. Moreover, the Activity with Botrytis cinerea [25] turned out to be 50%; in the assay with Podosphaera fuliginea [26] it was 50%; with Podosphaera fuliginea [27] it was 70%; in the assay on Podosphaera fuliginea [28], 70%.

Consider `CNC(=O)/C(=N/OC)c1ccccc1Oc1ccc(OCc2ccccc2)cc1`, for which the Activity in the assay with Podosphaera fuliginea [1] is listed as under 50%; with Thanatephorus cucumeris [2] it was under 70%; in the assay on Pyricularia oryzae [3], 50%; in the assay on Podosphaera fuliginea [4] it was under 50%; in assay [8] it was under 70%; in assay [9], under 70%. The Activity is on record as under 70% with Botrytis cinerea [29]; under 70% with Botrytis cinerea [30]; under 70% with Podosphaera fuliginea [10]; 50% with Pyricularia oryzae [12]; under 70% in assay [13]; under 70% with Thanatephorus cucumeris [15]. Moreover, the Activity is on record as 50% in the assay on Pyricularia oryzae [16]; under 70% in the assay with Thanatephorus cucumeris [18]; under 70% in assay [19]; 50% with Pyricularia oryzae [20]; under 50% in the assay with Podosphaera fuliginea [22]; under 70% in the assay with Podosphaera fuliginea [23]. Also, the Activity in the assay on Thanatephorus cucumeris [24] is under 70%; in the assay with Botrytis cinerea [31], under 70%; in the assay on Botrytis cinerea [32], under 70%; in the assay on Podosphaera fuliginea [26], under 50%; in the assay with Podosphaera fuliginea [27], under 70%; in the assay with Podosphaera fuliginea [28], under 70%.

Take `CNC(=O)/C(=N/OC)c1cc(C(F)(F)F)ccc1Oc1ccccc1`: the Activity (with Thanatephorus cucumeris [2]; in assay [8]; in assay [9]; with Botrytis cinerea [29]; in the assay on Botrytis cinerea [30]; in the assay with Podosphaera fuliginea [10]) was under 70% each time. For the same compound, the Activity (in assay [13]; in the assay with Thanatephorus cucumeris [15]; in the assay with Thanatephorus cucumeris [18]; in assay [19]; in the assay on Podosphaera fuliginea [23]; in the assay with Thanatephorus cucumeris [24]) was under 70% in each case. In addition, the Activity in the assay with Botrytis cinerea [31], in the assay with Botrytis cinerea [32], in the assay on Podosphaera fuliginea [27] and with Podosphaera fuliginea [28] was under 70% each time.

Take `CNC(=O)/C(=N/OC)c1cc([Si](C)(C)C)ccc1Oc1ccccc1`: the Activity (with Thanatephorus cucumeris [2]; in [8]; in assay [9]; with Botrytis cinerea [29]; in the assay on Botrytis cinerea [30]; in the assay with Podosphaera fuliginea [10]) was under 70% throughout. The Activity (in [13]; in the assay on Thanatephorus cucumeris [15]; with Thanatephorus cucumeris [18]; in [19]; with Podosphaera fuliginea [23]; with Thanatephorus cucumeris [24]) was under 70% in each case. The Activity in the assay with Botrytis cinerea [31], in the assay on Botrytis cinerea [32], in the assay on Podosphaera fuliginea [27] and in the assay with Podosphaera fuliginea [28] was under 70% in each case.

In the case of `CNC(=O)/C(=N/OC)c1cccc([N+](=O)[O-])c1Oc1ccccc1`, the Activity (in the assay with Thanatephorus cucumeris [2]; in [8]; in [9]; in the assay with Botrytis cinerea [29]; in the assay on Botrytis cinerea [30]; with Podosphaera fuliginea [10]) was under 70% in each case. Besides, the Activity (in [13]; in the assay with Thanatephorus cucumeris [15]; in the assay with Thanatephorus cucumeris [18]; in assay [19]; in the assay on Podosphaera fuliginea [23]; in the assay with Thanatephorus cucumeris [24]) was under 70% each time. Further, the Activity in the assay with Botrytis cinerea [31], in the assay with Botrytis cinerea [32], in the assay with Podosphaera fuliginea [27] and in the assay on Podosphaera fuliginea [28] was under 70% throughout.
